Source: the NIST ThermoML archive (doi:10.1016/j.jct.2012.03.011)
Numbers after ± are expanded uncertainties.

How the values were obtained:
[1] = 298.15 K; 101.33 kPa; Liquid; Vibrating tube method
[2] = refractive index (Na D-line) (dimensionless); conditions: 298.15 K; 101.33 kPa; Liquid; Standard Abbe refractometry
[3] = xn = mol fraction of the nth substance listed; conditions: 298.15 K, 101 kPa, Liquid, Vibrating tube method
[4] = excess molar enthalpy (molar enthalpy of mixing); xn = mol fraction of the nth substance listed; conditions: 298.15 K, 101 kPa, Liquid, Calvet calorimetry

CCCCCCCCCCCC [dodecane]
mass density [1]: 745.1 ± 0.58 kg/m3 | refractive index [2]: 1.4192 ± 0.0006

CCCCCCCCCCCC [dodecane] + CCOC(C)=O
mass density ([3]; x1 = 0.097): 860.06 ± 0.29 kg/m3 | mass density ([3]; x1 = 0.146): 846.23 ± 0.3 kg/m3 | mass density ([3]; x1 = 0.1976): 833.46 ± 0.31 kg/m3 | mass density ([3]; x1 = 0.2508): 821.88 ± 0.32 kg/m3 | mass density ([3]; x1 = 0.2979): 812.79 ± 0.33 kg/m3 | mass density ([3]; x1 = 0.3903): 797.68 ± 0.36 kg/m3 | mass density ([3]; x1 = 0.4943): 783.92 ± 0.39 kg/m3 | mass density ([3]; x1 = 0.6): 772.56 ± 0.43 kg/m3 | mass density ([3]; x1 = 0.6909): 764.45 ± 0.46 kg/m3 | mass density ([3]; x1 = 0.7392): 760.65 ± 0.48 kg/m3 | mass density ([3]; x1 = 0.7931): 756.85 ± 0.5 kg/m3 | mass density ([3]; x1 = 0.8213): 754.91 ± 0.51 kg/m3 | mass density ([3]; x1 = 0.8798): 751.38 ± 0.53 kg/m3 | mass density ([3]; x1 = 0.9374): 748.08 ± 0.55 kg/m3 | excess molar enthalpy ([4]; x1 = 0.0232): 0.0564 ± 0.00143 kcal/mol | excess molar enthalpy ([4]; x1 = 0.0541): 0.12 ± 0.00263 kcal/mol | excess molar enthalpy ([4]; x1 = 0.0898): 0.184 ± 0.00406 kcal/mol | excess molar enthalpy ([4]; x1 = 0.1316): 0.246 ± 0.00526 kcal/mol | excess molar enthalpy ([4]; x1 = 0.18): 0.306 ± 0.00645 kcal/mol | excess molar enthalpy ([4]; x1 = 0.2292): 0.353 ± 0.00765 kcal/mol | excess molar enthalpy ([4]; x1 = 0.279): 0.389 ± 0.00837 kcal/mol | excess molar enthalpy ([4]; x1 = 0.3296): 0.416 ± 0.00884 kcal/mol | excess molar enthalpy ([4]; x1 = 0.3789): 0.434 ± 0.00932 kcal/mol | excess molar enthalpy ([4]; x1 = 0.4062): 0.442 ± 0.00932 kcal/mol | excess molar enthalpy ([4]; x1 = 0.4261): 0.444 ± 0.00956 kcal/mol | excess molar enthalpy ([4]; x1 = 0.4718): 0.448 ± 0.00956 kcal/mol | excess molar enthalpy ([4]; x1 = 0.4736): 0.446 ± 0.00956 kcal/mol | excess molar enthalpy ([4]; x1 = 0.5534): 0.43 ± 0.00908 kcal/mol | excess molar enthalpy ([4]; x1 = 0.647): 0.385 ± 0.00813 kcal/mol | excess molar enthalpy ([4]; x1 = 0.7424): 0.313 ± 0.00669 kcal/mol | excess molar enthalpy ([4]; x1 = 0.8396): 0.214 ± 0.00454 kcal/mol | excess molar enthalpy ([4]; x1 = 0.9339): 0.101 ± 0.00215 kcal/mol

CCOC(C)=O [ethyl acetate]
mass density [1]: 894.34 ± 0.23 kg/m3 | refractive index [2]: 1.37 ± 0.0005

CCCCC(=O)OCC [ethyl pentanoate]
mass density [1]: 869.28 ± 0.23 kg/m3 | refractive index [2]: 1.3981 ± 0.0005

CCCCC(=O)OCC [ethyl pentanoate] + CCCCCCCCCCCC
mass density ([3]; x2 = 0.0505): 858.92 ± 0.26 kg/m3 | mass density ([3]; x2 = 0.1024): 849.09 ± 0.28 kg/m3 | mass density ([3]; x2 = 0.1522): 840.25 ± 0.29 kg/m3 | mass density ([3]; x2 = 0.1998): 832.32 ± 0.3 kg/m3 | mass density ([3]; x2 = 0.2496): 824.53 ± 0.32 kg/m3 | mass density ([3]; x2 = 0.3013): 816.7 ± 0.33 kg/m3 | mass density ([3]; x2 = 0.4039): 802.81 ± 0.37 kg/m3 | mass density ([3]; x2 = 0.502): 790.76 ± 0.4 kg/m3 | mass density ([3]; x2 = 0.6026): 779.67 ± 0.43 kg/m3 | mass density ([3]; x2 = 0.6547): 774.3 ± 0.45 kg/m3 | mass density ([3]; x2 = 0.6992): 769.94 ± 0.47 kg/m3 | mass density ([3]; x2 = 0.7485): 765.35 ± 0.48 kg/m3 | mass density ([3]; x2 = 0.7982): 760.93 ± 0.5 kg/m3 | mass density ([3]; x2 = 0.847): 756.88 ± 0.52 kg/m3 | mass density ([3]; x2 = 0.8918): 753.23 ± 0.54 kg/m3 | mass density ([3]; x2 = 0.9497): 748.76 ± 0.56 kg/m3 | excess molar enthalpy ([4]; x2 = 0.043): 0.0459 ± 0.0012 kcal/mol | excess molar enthalpy ([4]; x2 = 0.0928): 0.0887 ± 0.00191 kcal/mol | excess molar enthalpy ([4]; x2 = 0.1433): 0.129 ± 0.00287 kcal/mol | excess molar enthalpy ([4]; x2 = 0.1957): 0.163 ± 0.00359 kcal/mol | excess molar enthalpy ([4]; x2 = 0.2488): 0.192 ± 0.00406 kcal/mol | excess molar enthalpy ([4]; x2 = 0.3005): 0.214 ± 0.00454 kcal/mol | excess molar enthalpy ([4]; x2 = 0.3181): 0.219 ± 0.00478 kcal/mol | excess molar enthalpy ([4]; x2 = 0.3511): 0.23 ± 0.00502 kcal/mol | excess molar enthalpy ([4]; x2 = 0.3548): 0.232 ± 0.00502 kcal/mol | excess molar enthalpy ([4]; x2 = 0.3978): 0.242 ± 0.00526 kcal/mol | excess molar enthalpy ([4]; x2 = 0.446): 0.25 ± 0.00526 kcal/mol | excess molar enthalpy ([4]; x2 = 0.5012): 0.252 ± 0.0055 kcal/mol | excess molar enthalpy ([4]; x2 = 0.5648): 0.247 ± 0.00526 kcal/mol | excess molar enthalpy ([4]; x2 = 0.6392): 0.23 ± 0.00502 kcal/mol | excess molar enthalpy ([4]; x2 = 0.7228): 0.197 ± 0.0043 kcal/mol | excess molar enthalpy ([4]; x2 = 0.8127): 0.148 ± 0.00311 kcal/mol | excess molar enthalpy ([4]; x2 = 0.9036): 0.0896 ± 0.00191 kcal/mol

CCCCC(=O)OCC [ethyl pentanoate] + CCOC(C)=O
mass density ([3]; x1 = 0.0482): 892.36 ± 0.23 kg/m3 | mass density ([3]; x1 = 0.0954): 890.53 ± 0.23 kg/m3 | mass density ([3]; x1 = 0.148): 888.63 ± 0.23 kg/m3 | mass density ([3]; x1 = 0.1941): 887.05 ± 0.23 kg/m3 | mass density ([3]; x1 = 0.3047): 883.64 ± 0.24 kg/m3 | mass density ([3]; x1 = 0.4): 881.02 ± 0.24 kg/m3 | mass density ([3]; x1 = 0.4921): 878.73 ± 0.24 kg/m3 | mass density ([3]; x1 = 0.5717): 876.92 ± 0.24 kg/m3 | mass density ([3]; x1 = 0.6556): 875.16 ± 0.24 kg/m3 | mass density ([3]; x1 = 0.6946): 874.41 ± 0.24 kg/m3 | mass density ([3]; x1 = 0.7526): 873.29 ± 0.24 kg/m3 | mass density ([3]; x1 = 0.7924): 872.6 ± 0.2 kg/m3 | mass density ([3]; x1 = 0.8362): 871.84 ± 0.24 kg/m3 | mass density ([3]; x1 = 0.8651): 871.36 ± 0.24 kg/m3 | mass density ([3]; x1 = 0.9263): 870.36 ± 0.24 kg/m3 | mass density ([3]; x1 = 0.9377): 870.21 ± 0.24 kg/m3 | excess molar enthalpy ([4]; x1 = 0.0627): 0.0117 ± 0.000478 kcal/mol | excess molar enthalpy ([4]; x1 = 0.1347): 0.0213 ± 0.000478 kcal/mol | excess molar enthalpy ([4]; x1 = 0.2071): 0.0282 ± 0.000717 kcal/mol | excess molar enthalpy ([4]; x1 = 0.2799): 0.0332 ± 0.000717 kcal/mol | excess molar enthalpy ([4]; x1 = 0.3493): 0.0351 ± 0.000717 kcal/mol | excess molar enthalpy ([4]; x1 = 0.4144): 0.0363 ± 0.000956 kcal/mol | excess molar enthalpy ([4]; x1 = 0.4736): 0.0375 ± 0.000956 kcal/mol | excess molar enthalpy ([4]; x1 = 0.5198): 0.0368 ± 0.000956 kcal/mol | excess molar enthalpy ([4]; x1 = 0.561): 0.0361 ± 0.000956 kcal/mol | excess molar enthalpy ([4]; x1 = 0.6071): 0.0347 ± 0.000717 kcal/mol | excess molar enthalpy ([4]; x1 = 0.6645): 0.0318 ± 0.000717 kcal/mol | excess molar enthalpy ([4]; x1 = 0.7376): 0.0272 ± 0.000717 kcal/mol | excess molar enthalpy ([4]; x1 = 0.8193): 0.021 ± 0.000478 kcal/mol | excess molar enthalpy ([4]; x1 = 0.8904): 0.0139 ± 0.000478 kcal/mol | excess molar enthalpy ([4]; x1 = 0.9529): 0.00717 ± 0.000239 kcal/mol
